Assay results published in patent US11891365B2, “3-alkyl-4-amido-bicyclic [4,5,0] hydroxamic acids as HDAC inhibitors” (Valo Health, Inc., priority 2015, dated 2024).

Biological target: T1, Full length human recombinant HDAC6 protein (Homo sapiens, UniProt Q9UBN7)
T1 sequence (Q9UBN7 1-1215): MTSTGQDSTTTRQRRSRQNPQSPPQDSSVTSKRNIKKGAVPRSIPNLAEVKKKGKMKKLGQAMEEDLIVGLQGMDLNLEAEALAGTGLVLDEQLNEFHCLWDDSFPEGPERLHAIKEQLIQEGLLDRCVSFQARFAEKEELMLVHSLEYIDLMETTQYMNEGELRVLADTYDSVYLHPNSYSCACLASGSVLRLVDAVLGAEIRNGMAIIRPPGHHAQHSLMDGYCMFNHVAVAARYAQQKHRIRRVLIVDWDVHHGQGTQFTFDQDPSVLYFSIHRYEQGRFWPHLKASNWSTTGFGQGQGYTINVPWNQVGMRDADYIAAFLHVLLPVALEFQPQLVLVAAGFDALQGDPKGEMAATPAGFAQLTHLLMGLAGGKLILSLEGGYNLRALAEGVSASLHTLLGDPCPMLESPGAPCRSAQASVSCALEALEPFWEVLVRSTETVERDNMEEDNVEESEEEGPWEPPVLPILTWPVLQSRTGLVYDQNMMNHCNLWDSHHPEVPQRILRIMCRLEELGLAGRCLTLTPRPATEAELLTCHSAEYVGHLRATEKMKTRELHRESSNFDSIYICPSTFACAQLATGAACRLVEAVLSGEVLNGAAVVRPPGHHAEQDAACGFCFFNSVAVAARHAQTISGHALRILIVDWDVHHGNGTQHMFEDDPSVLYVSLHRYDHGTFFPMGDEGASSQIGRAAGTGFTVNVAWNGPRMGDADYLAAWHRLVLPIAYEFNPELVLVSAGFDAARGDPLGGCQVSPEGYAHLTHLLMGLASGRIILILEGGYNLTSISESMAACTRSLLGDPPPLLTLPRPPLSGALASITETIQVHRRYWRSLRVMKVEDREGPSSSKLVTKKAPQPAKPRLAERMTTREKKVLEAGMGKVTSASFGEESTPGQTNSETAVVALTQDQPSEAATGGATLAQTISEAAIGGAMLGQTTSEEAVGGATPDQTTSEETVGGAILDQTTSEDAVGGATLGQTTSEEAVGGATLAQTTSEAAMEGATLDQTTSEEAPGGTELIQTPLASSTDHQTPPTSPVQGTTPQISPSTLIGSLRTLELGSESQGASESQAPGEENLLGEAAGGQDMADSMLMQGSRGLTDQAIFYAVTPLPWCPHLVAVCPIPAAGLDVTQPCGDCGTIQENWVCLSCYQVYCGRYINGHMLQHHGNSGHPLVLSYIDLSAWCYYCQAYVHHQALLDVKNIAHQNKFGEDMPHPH
Experiment: In vitro histone deacetylase assay: enzymatic HDAC6 electrophoretic mobility shift assay
Type: biochemical
Conditions: 1 nM enzyme, 2 μM peptide substrate RHKK(Ac)-NH2, 25° C., 12 concentrations; read-out: Inhibitory Concentration (IC50) Values against HDAC6, Activity Range

Row | IC50 | SMILES
1 | 100 to 500 nM | CC(C)(C(=O)N1CCOc2cc(C(=O)NO)ccc2C1)c1ccc(-c2ccccc2)cc1 [4-(2-([1,1′-biphenyl]-4-yl)-2-methylpropanoyl)-N-hydroxy-2,3,4,5-tetrahydrobenzo[f][1,4]oxazepine-8-carboxamide]
2 | ≤ 100 nM | COC1(C(=O)N2Cc3ccc(C(=O)NO)cc3OC[C@@H]2C)CCOCC1 [(S)-N-hydroxy-4-(4-methoxytetrahydro-2H-pyran-4-carbonyl)-3-methyl-2,3,4,5-tetrahydrobenzo[f][1,4]oxazepine-8-carboxamide]
3 | ≤ 100 nM | O=C(NO)c1ccc2c(c1)OCCN(C(=O)C1(Cn3ccnc3)CC1)C2 [4-(1-((1H-imidazol-1-yl)methyl)cyclopropane-1-carbonyl)-N-hydroxy-2,3,4,5-tetrahydrobenzo[f][1,4]oxazepine-8-carboxamide]
4 | 100 to 500 nM | C[C@H]1CN(C(=O)C2(C)CCC2)Cc2ccc(C(=O)NO)cc2O1 [(S)-N-hydroxy-2-methyl-4-(1-methylcyclobutane-1-carbonyl)-2,3,4,5-tetrahydrobenzo[f][1,4]oxazepine-8-carboxamide]
5 | ≤ 100 nM | O=C(NO)c1ccc2c(c1)OC[C@H](C(F)(F)F)N(C(=O)C1CCOCC1)C2 [(R)-N-hydroxy-4-(tetrahydro-2H-pyran-4-carbonyl)-3-(trifluoromethyl)-2,3,4,5-tetrahydrobenzo[f][1,4]oxazepine-8-carboxamide]
6 | 100 to 500 nM | COC[C@@H]1CN(C(=O)C2CCOCC2)Cc2ccc(C(=O)NO)cc2O1 [(S)-N-hydroxy-2-(methoxymethyl)-4-(tetrahydro-2H-pyran-4-carbonyl)-2,3,4,5-tetrahydrobenzo[f][1,4]oxazepine-8-carboxamide]
7 | ≤ 100 nM | O=C(NO)c1ccc2c(c1)OCCN(C(=O)c1ccc3[nH]ccc3c1)C2 [N-hydroxy-4-(1H-indole-5-carbonyl)-2,3,4,5-tetrahydrobenzo[f][1,4]oxazepine-8-carboxamide]
8 | > 500 nM | COc1ccc(CC(=O)N2CCOc3ccc(C(=O)NO)cc3C2)cc1 [N-hydroxy-4-(2-(4-methoxyphenyl)acetyl)-2,3,4,5-tetrahydrobenzo[f][1,4]oxazepine-7-carboxamide]
9 | 100 to 500 nM | CC(C)(C)OC(=O)N1CCC2(CCC(C(=O)N3CCOc4cc(C(=O)NO)ccc4C3)CC2)CC1 [tert-butyl 9-(8-(hydroxycarbamoyl)-2,3,4,5-tetrahydrobenzo[f][1,4]oxazepine-4-carbonyl)-3-azaspiro[5.5]undecane-3-carboxylate]
10 | ≤ 100 nM | C[C@H]1c2ccc(C(=O)NO)cc2OCCN1C(=O)[C@@]1(C)CCCOC1 [(S)-N-hydroxy-5-methyl-4-((S)-3-methyltetrahydro-2H-pyran-3-carbonyl)-2,3,4,5-tetrahydrobenzo[f][1,4]oxazepine-8-carboxamide]
11 | ≤ 100 nM | O=C(NO)c1ccc2c(c1)OCCN(C(=O)C1(c3ccc(Cl)cc3)CC1)C2 [4-(1-(4-chlorophenyl)cyclopropane-1-carbonyl)-N-hydroxy-2,3,4,5-tetrahydrobenzo[f][1,4]oxazepine-8-carboxamide]
12 | ≤ 100 nM | O=C(NO)c1ccc2c(c1)OCCN(C(=O)C1(c3cnccn3)CC1)C2 [N-hydroxy-4-(1-(pyrazin-2-yl)cyclopropane-1-carbonyl)-2,3,4,5-tetrahydrobenzo[f][1,4]oxazepine-8-carboxamide]
13 | ≤ 100 nM | O=C(NO)c1ccc2c(c1)OC[C@H](Cc1ccccc1)N(C(=O)C1CCOCC1)C2 [(S)-3-benzyl-N-hydroxy-4-(tetrahydro-2H-pyran-4-carbonyl)-2,3,4,5-tetrahydrobenzo[f][1,4]oxazepine-8-carboxamide]
14 | ≤ 100 nM | C[C@H]1COc2cc(C(=O)NO)ccc2CN1C(=O)C1CCCOCC1 (stereo partly drawn) [(3S)-N-hydroxy-3-methyl-4-(oxepane-4-carbonyl)-2,3,4,5-tetrahydrobenzo[f][1,4]oxazepine-8-carboxamide]
15 | ≤ 100 nM | CC(C)(C)OC(=O)N1CCC2(CCC(C(=O)N3CCOc4cc(C(=O)NO)ccc4C3)CC2)C1 (centres unmarked) [tert-butyl 8-(8-(hydroxycarbamoyl)-2,3,4,5-tetrahydrobenzo[f][1,4]oxazepine-4-carbonyl)-2-azaspiro[4.5]decane-2-carboxylate]
16 | > 500 nM | CC(C)[C@@H]1c2ccc(C(=O)NO)cc2OCCN1C(=O)C1CCOCC1 [(R)-N-hydroxy-5-isopropyl-4-(tetrahydro-2H-pyran-4-carbonyl)-2,3,4,5-tetrahydrobenzo[f][1,4]oxazepine-8-carboxamide]
17 | ≤ 100 nM | CC(=O)N1CCOc2cc(C(=O)NO)ccc2C1 [4-acetyl-N-hydroxy-2,3,4,5-tetrahydrobenzo[f][1,4]oxazepine-8-carboxamide]
18 | ≤ 100 nM | CC(C(=O)N1CCOc2cc(C(=O)NO)ccc2C1)c1cccnc1 (centres unmarked) [N-hydroxy-4-(2-(pyridin-3-yl)propanoyl)-2,3,4,5-tetrahydrobenzo[f][1,4]oxazepine-8-carboxamide]
19 | ≤ 100 nM | C[C@H]1COc2cc(C(=O)NO)ccc2CN1C(=O)C1CS(=O)(=O)C1 [(S)-4-(1,1-dioxidothietane-3-carbonyl)-N-hydroxy-3-methyl-2,3,4,5-tetrahydrobenzo[f][1,4]oxazepine-8-carboxamide]
20 | ≤ 100 nM | C[C@H]1COc2cc(C(=O)NO)ccc2CN1C(=O)C1CCC(OC(F)(F)F)CC1 (single isomer, unassigned)
21 | ≤ 100 nM | COCC1(C(=O)N2CCOc3cc(C(=O)NO)ccc3C2)CCC1 [N-hydroxy-4-(1-(methoxymethyl)cyclobutane-1-carbonyl)-2,3,4,5-tetrahydrobenzo[f][1,4]oxazepine-8-carboxamide]
22 | ≤ 100 nM | Cn1ccc(C(=O)N2CCOc3cc(C(=O)NO)ccc3C2)n1 [N-hydroxy-4-(1-methyl-1H-pyrazole-3-carbonyl)-2,3,4,5-tetrahydrobenzo[f][1,4]oxazepine-8-carboxamide]
23 | ≤ 100 nM | COCCC(=O)N1Cc2ccc(C(=O)NO)cc2OC[C@@H]1C [(S)-N-hydroxy-4-(3-methoxypropanoyl)-3-methyl-2,3,4,5-tetrahydrobenzo[f][1,4]oxazepine-8-carboxamide]
24 | 100 to 500 nM | O=C(NO)c1ccc2c(c1)OCCN(C(=O)Cn1cccc(C(F)(F)F)c1=O)C2 [N-hydroxy-4-(2-(2-oxo-3-(trifluoromethyl)pyridin-1(2H)-yl)acetyl)-2,3,4,5-tetrahydrobenzo[f][1,4]oxazepine-8-carboxamide]
25 | ≤ 100 nM | C[C@H]1COc2cc(C(=O)NO)ccc2CN1C(=O)[C@@H]1CC2CCC1O2 (stereo partly drawn) [(3S)-4-((2R)-7-oxabicyclo[2.2.1]heptane-2-carbonyl)-N-hydroxy-3-methyl-2,3,4,5-tetrahydrobenzo[f][1,4]oxazepine-8-carboxamide]
26 | ≤ 100 nM | COC1CCC(C(=O)N2Cc3ccc(C(=O)NO)cc3OC[C@@H]2C)CC1 (single isomer, unassigned)
27 | ≤ 100 nM | COCC1(C(=O)N2CCOc3cc(C(=O)NO)ccc3[C@@H]2C)CCOCC1 [(S)-N-hydroxy-4-(4-(methoxymethyl)tetrahydro-2H-pyran-4-carbonyl)-5-methyl-2,3,4,5-tetrahydrobenzo[f][1,4]oxazepine-8-carboxamide]
28 | > 500 nM | COc1ccccc1C(C)(C)C(=O)N1CCOc2cc(C(=O)NO)ccc2C1 [N-hydroxy-4-(2-(2-methoxyphenyl)-2-methylpropanoyl)-2,3,4,5-tetrahydrobenzo[f][1,4]oxazepine-8-carboxamide]

Row | SMILES | IC50
29 | CC(C)COCC(=O)N1CCOc2cc(C(=O)NO)ccc2C1 [N-hydroxy-4-(2-isobutoxyacetyl)-2,3,4,5-tetrahydrobenzo[f][1,4]oxazepine-8-carboxamide] | > 500 nM
